{
  "source": "ChEMBL document CHEMBL5532638",
  "about": "“Current development of 1,2,3-triazole derived potential antimalarial scaffolds: Structure- activity relationship (SAR) and bioactive compounds” (Eur J Med Chem, 2023)",
  "key": {"Plasmodium falciparum [1]": {"tested_on": "Plasmodium falciparum", "assay": "Antiplasmodial activity against Plasmodium falciparum infected in O+ RBCs assessed as parasite growth inhibition incubated for 36 to 40 hrs by JSB staining based analysis", "type": "functional, organism-based, RBC", "conditions": "Plasmodium falciparum, Erythrocyte; read-out: IC50"}, "Plasmodium falciparum [2]": {"tested_on": "Plasmodium falciparum", "assay": "Antiplasmodial activity against CQ-resistant Plasmodium falciparum FCR-3/Gambia subline F-86 infected in erythrocytes assessed as parasite growth inhibition incubated for 24 hrs by [3H]-hypoxanthine incorporation assay", "type": "functional, organism-based", "conditions": "FCR-3/Gambia subline F-86, Erythrocyte"}, "Plasmodium falciparum [3]": {"tested_on": "Plasmodium falciparum", "assay": "Antiplasmodial activity against CQ-resistant Plasmodium falciparum K1 infected in human O+ RBCs assessed as parasite growth inhibition incubated for 72 hrs by ELISA", "type": "functional, organism-based", "conditions": "K1, 72 h"}, "Plasmodium falciparum [4]": {"tested_on": "Plasmodium falciparum", "assay": "Antimalarial activity against Plasmodium falciparum 3D7 assessed as parasite growth inhibition incubated for 42 hrs by [3H]-hypoxanthine incorporation assay", "type": "functional, organism-based"}, "[5]": {"assay": "Cytotoxicity against human PC-3 cells incubated for 72 hrs by MTT assay", "type": "toxicity, cell-based"}, "Plasmepsin II": {"molecular_target": "Plasmepsin II (Plasmodium falciparum, UniProt P46925)", "sequence (P46925 whole entry)": "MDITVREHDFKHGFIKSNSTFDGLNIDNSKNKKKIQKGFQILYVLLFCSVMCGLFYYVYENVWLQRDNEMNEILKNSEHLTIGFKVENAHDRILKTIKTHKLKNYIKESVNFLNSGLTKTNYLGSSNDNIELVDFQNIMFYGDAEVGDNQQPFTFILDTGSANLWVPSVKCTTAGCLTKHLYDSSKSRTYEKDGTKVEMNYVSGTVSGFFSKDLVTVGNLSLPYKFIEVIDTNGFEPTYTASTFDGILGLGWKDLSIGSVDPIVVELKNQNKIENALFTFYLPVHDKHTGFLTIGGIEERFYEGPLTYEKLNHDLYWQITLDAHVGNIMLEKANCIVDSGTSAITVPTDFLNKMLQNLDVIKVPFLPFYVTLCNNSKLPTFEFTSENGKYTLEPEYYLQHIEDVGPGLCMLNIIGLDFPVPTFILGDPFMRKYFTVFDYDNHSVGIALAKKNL", "assay": "Inhibition of Plasmodium falciparum Plm-II using DABCYL-Glu-Arg-Nle-Phe-Leu-Ser-Phe-Pro-EDANS as substrate preincubated for 30 mins followed by substrate addition measured after 8 to 15 mins by FRET assay"}, "Plasmodium falciparum [6]": {"tested_on": "Plasmodium falciparum", "assay": "Antiplasmodial activity against Plasmodium falciparum 3D7 assessed as parasite growth inhibition incubated for 24 hrs by [3H]-hypoxanthine incorporation assay", "type": "functional, organism-based"}, "Plasmodium falciparum [7]": {"tested_on": "Plasmodium falciparum", "assay": "Antimalarial activity against CQ-resistant Plasmodium falciparum RKL-9 field isolate at asexual stage assessed as parasite growth inhibition incubated for 22 to 36 hrs by SMI assay", "type": "functional, organism-based"}, "Plasmodium falciparum [8]": {"tested_on": "Plasmodium falciparum", "assay": "Antiplasmodial activity against CQ-sensitive Plasmodium falciparum 3D7 assessed as parasite growth inhibition", "type": "functional, organism-based"}, "Plasmodium falciparum [9]": {"tested_on": "Plasmodium falciparum", "assay": "Antiplasmodial activity against CQ-resistant Plasmodium falciparum 2/K-1 infected in human O+ red blood cells assessed as parasite growth inhibition incubated for 72 hrs by Malstat assay", "type": "functional, organism-based, Red blood cell", "conditions": "2/K-1, Erythrocyte"}, "Plasmodium falciparum [10]": {"tested_on": "Plasmodium falciparum", "assay": "Antiplasmodial activity against Plasmodium falciparum K1 infected in O+ RBCs assessed as parasite growth inhibition incubated for 36 to 40 hrs by Geimsa staining based analysis", "type": "functional, organism-based, RBC", "conditions": "K1, Erythrocyte"}},
  "data": [
    {"smiles": "Cc1ccc(COC(=O)Cn2cc(CSc3ccc(C)cc3)nn2)cc1", "values": [
      {"measurement": "IC50", "setting": "Plasmodium falciparum [1]", "result": 204, "unit": "nM"}
    ]},
    {"smiles": "O=C(Cn1cc(CSc2ccc3ccccc3c2)nn1)OCc1ccc([N+](=O)[O-])cc1", "values": [
      {"measurement": "IC50", "setting": "Plasmodium falciparum [1]", "result": 207, "unit": "nM"}
    ]},
    {"smiles": "C[C@H]1[C@@H](n2cc(-c3cccc(Cl)c3)nn2)O[C@@H]2O[C@]3(C)CC[C@H]4[C@H](C)CC[C@@H]1[C@@]24OO3", "values": [
      {"measurement": "IC50", "setting": "Plasmodium falciparum [2]", "result": 3.7, "unit": "nM"}
    ]},
    {"smiles": "O=C1C(Oc2ccccc2)C(c2ccccc2Cl)N1c1ccc(OCc2cn(Cc3ccccc3)nn2)cc1", "note": "(stereo not given)", "values": [
      {"measurement": "IC50", "setting": "Plasmodium falciparum [3]", "result": 850, "unit": "nM"}
    ]},
    {"smiles": "C=CCn1cc(COc2ccc(C3C(Oc4ccccc4)C(=O)N3c3ccc(C)cc3)cc2)nn1", "note": "(stereo not given)", "values": [
      {"measurement": "IC50", "setting": "Plasmodium falciparum [3]", "result": 850, "unit": "nM"}
    ]},
    {"smiles": "COc1ccc2cc3[n+](cc2c1OCc1cn(-c2ccc(S(=O)(=O)Nc4nc(C)cc(C)n4)cc2)nn1)CCc1cc2c(cc1-3)OCO2.[Cl-]", "values": [
      {"measurement": "IC50", "setting": "Plasmodium falciparum [4]", "result": 0.1, "unit": "µg/mL"},
      {"measurement": "CC50 at 72 h", "setting": "[5]", "result": "> 200", "unit": "µg/mL"}
    ]},
    {"smiles": "CCCCCc1ccc(-n2nnc(CCN(CC)CC)c2Cc2ccc(-c3ccc(OC)cc3)cc2)cc1", "values": [
      {"measurement": "IC50", "setting": "Plasmepsin II", "result": 600, "unit": "nM"}
    ]},
    {"smiles": "C=CCn1cc(COc2ccc(N3C(=O)C(Oc4ccccc4)C3c3ccc(C)cc3)cc2)nn1", "note": "(stereo not given)", "values": [
      {"measurement": "IC50", "setting": "Plasmodium falciparum [3]", "result": 850, "unit": "nM"}
    ]},
    {"smiles": "COc1ccc(N2C(=O)C(Oc3ccccc3)C2c2ccc(OCc3cn(Cc4ccccc4)nn3)cc2)cc1OC", "note": "(stereo not given)", "values": [
      {"measurement": "IC50", "setting": "Plasmodium falciparum [3]", "result": 850, "unit": "nM"}
    ]},
    {"smiles": "O=C(Cn1cc(CSc2ccc(Cl)cc2)nn1)OCc1ccccc1", "values": [
      {"measurement": "IC50", "setting": "Plasmodium falciparum [1]", "result": 209, "unit": "nM"}
    ]},
    {"smiles": "O=S(=O)(c1ccc(-n2cc(COc3ccc(I)cc3)nn2)cc1)N1CCN(c2ccccc2)CC1", "values": [
      {"measurement": "IC50", "setting": "Plasmodium falciparum [6]", "result": 12.9, "unit": "µg/mL"}
    ]},
    {"smiles": "O=C(Cn1cc(Oc2ccc(Cl)cc2)nn1)NCCNc1ccnc2cc(Cl)ccc12", "values": [
      {"measurement": "IC50", "setting": "Plasmodium falciparum [7]", "result": 8.5, "unit": "nM"}
    ]},
    {"smiles": "COc1ccc2cc3[n+](cc2c1OCc1cn(-c2ccc(S(=O)(=O)N4CCN(S(=O)(=O)c5ccc(-n6cc(COc7c(OC)ccc8cc9[n+](cc78)CCc7cc8c(cc7-9)OCO8)nn6)cc5)CC4)cc2)nn1)CCc1cc2c(cc1-3)OCO2.[Cl-].[Cl-]", "values": [
      {"measurement": "IC50", "setting": "Plasmodium falciparum [4]", "result": 0.1, "unit": "µg/mL"},
      {"measurement": "CC50 at 72 h", "setting": "[5]", "result": "> 200", "unit": "µg/mL"}
    ]},
    {"smiles": "CCCCCc1ccc(-n2nnc(CCN3CCCC3)c2Cc2ccc(-c3ccc(OC)cc3)cc2)cc1", "values": [
      {"measurement": "IC50", "setting": "Plasmepsin II", "result": 600, "unit": "nM"}
    ]},
    {"smiles": "C[C@H](Cn1cc(C(C)(C)O)nn1)C1CCC2[C@@H](O)CCC[C@]12C", "note": "(stereo not given in full)", "values": [
      {"measurement": "IC50", "setting": "Plasmodium falciparum [8]", "result": 20, "unit": "nM"}
    ]},
    {"smiles": "Cc1ccc(C2C(Oc3ccccc3)C(=O)N2c2ccc(OCc3cn(Cc4ccccc4)nn3)cc2)cc1", "note": "(stereo not given)", "values": [
      {"measurement": "IC50", "setting": "Plasmodium falciparum [3]", "result": 850, "unit": "nM"}
    ]},
    {"smiles": "ClCCCCn1cc(-c2ccccc2)nn1", "values": [
      {"measurement": "IC50", "setting": "Plasmodium falciparum [8]", "result": 3290, "unit": "nM"}
    ]},
    {"smiles": "Cc1ccc(N2C(=O)C(Oc3ccccc3)C2c2ccc(OCc3cn(Cc4ccccc4)nn3)cc2)cc1", "note": "(stereo not given)", "values": [
      {"measurement": "IC50", "setting": "Plasmodium falciparum [3]", "result": 850, "unit": "nM"}
    ]},
    {"smiles": "C=CCn1cc(COc2ccc(C3C(Oc4ccccc4)C(=O)N3c3ccccc3)cc2)nn1", "note": "(stereo not given)", "values": [
      {"measurement": "IC50", "setting": "Plasmodium falciparum [3]", "result": 850, "unit": "nM"}
    ]},
    {"smiles": "O=C1C(Oc2ccccc2)C(c2ccc(OCc3cn(Cc4ccccc4)nn3)cc2)N1c1ccccc1", "note": "(stereo not given)", "values": [
      {"measurement": "IC50", "setting": "Plasmodium falciparum [3]", "result": 850, "unit": "nM"}
    ]},
    {"smiles": "O=c1n(Cc2cccc(Cl)c2)nc2c(S(=O)(=O)N3CCCCC3)cccn12", "values": [
      {"measurement": "IC50", "setting": "Plasmodium falciparum [9]", "result": 2240, "unit": "nM"}
    ]},
    {"smiles": "Cc1ccc(COC(=O)Cn2cc(CSc3ccc(Br)cc3)nn2)cc1", "values": [
      {"measurement": "IC50", "setting": "Plasmodium falciparum [1]", "result": 178, "unit": "nM"}
    ]},
    {"smiles": "Cc1cc(C)nc(NS(=O)(=O)c2ccc(-n3cc(COc4ccc(Cl)cc4Cl)nn3)cc2)n1", "values": [
      {"measurement": "IC50", "setting": "Plasmodium falciparum [6]", "result": 16.7, "unit": "µg/mL"}
    ]},
    {"smiles": "CCCCCc1ccc(-n2nnc(CCN3CCN(C)CC3)c2Cc2ccc(-c3ccc(OC)cc3)cc2)cc1", "values": [
      {"measurement": "IC50", "setting": "Plasmepsin II", "result": 1800, "unit": "nM"}
    ]},
    {"smiles": "C=C[C@H]1CN2CC[C@H]1C[C@@H]2[C@@H](c1ccnc2ccc(OC)cc12)n1cc(CCCCCC)nn1", "values": [
      {"measurement": "IC50", "setting": "Plasmodium falciparum [10]", "result": 280, "unit": "nM"}
    ]},
    {"smiles": "C=C[C@H]1CN2CC[C@H]1C[C@@H]2[C@@H](c1ccnc2ccc(OC)cc12)n1cc(CCCCCCCCCCCCCC)nn1", "values": [
      {"measurement": "IC50", "setting": "Plasmodium falciparum [10]", "result": 280, "unit": "nM"}
    ]},
    {"smiles": "C=C[C@H]1CN2CC[C@H]1C[C@@H]2[C@@H](c1ccnc2ccc(OC)cc12)n1cc(C[C@H](N)C(=O)O)nn1", "values": [
      {"measurement": "IC50", "setting": "Plasmodium falciparum [10]", "result": 250, "unit": "nM"}
    ]},
    {"smiles": "C=C[C@H]1CN2CC[C@H]1C[C@@H]2[C@@H](c1ccnc2ccc(OC)cc12)n1cc(CN2CCCC2C(=O)OCC)nn1", "note": "(stereo not given in full)", "values": [
      {"measurement": "IC50", "setting": "Plasmodium falciparum [10]", "result": 330, "unit": "nM"}
    ]}
  ]
}
